In US20180263975A1, “Methods Of Treating Motor And Movement Disorders And Side Effects Thereof Associated with Parkinson's Disease Treatments” (AMARANTUS BIOSCIENCE HOLDINGS, INC., priority 2015, published 2018):
Entries after “also recorded” stand apart in the source; their conditions may differ.

Legend:
[1] = system: Parkinson's patients with L-DOPA induced dyskinesias; assay: Rush Dyskinesia Rating Scale AUC after a levodopa challenge dose; format: in vivo, human; details: 5 mg dose
Excerpt: This example describes a multicenter, randomized, double-blind, placebo-controlled, dose finding study of oral eltoprazine in Parkinson's patients with L-DOPA induced dyskinesias, in a levodopa challenge-dose setting in Parkinson's Disease. A total of 22 patients participated in the study, out of which 18 patients fulfilled the protocol in terms of eligibility, interventions, and outcome assessment. […]
During each of five visits, and after a two-hour fast, each patient received a challenge dosage (150%—up to a maximum of 250 mg) of levodopa. […] The patients were periodically recorded for 180 minutes after treatment, and the videos were evaluated in a blinded manner.
The term “Rush Dyskinesia Rating Scale” and “Rush DRS” refer to an observer-based rating scale based on fixed movements. The numerical parts of the Rush DRS are recorded separately from the descriptive parts, as described by Goetz et al., in Movement Disorders, Vol. 9, No. 4, 1994, 390-394.
(§1) Filming occurred 30 minutes prior to, and every 30 minutes up to 180 minutes after a challenge test of L-DOPA and study medication. […] Videotaped records of each sequence were assessed by separate individual qualified raters at both of the two clinical centers. […]

[2] = system: Parkinson's patients with L-DOPA induced dyskinesias; assay: Clinical Dyskinesia Rating Scale (CDRS) rating of L-DOPA induced dyskinesia after a levodopa challenge dose; format: in vivo, human
Excerpt: (§2) This example describes a multicenter, randomized, double-blind, placebo-controlled, dose finding study of oral eltoprazine in Parkinson's patients with L-DOPA induced dyskinesias, in a levodopa challenge-dose setting in Parkinson's Disease. A total of 22 patients participated in the study, out of which 18 patients fulfilled the protocol in terms of eligibility, interventions, and outcome assessment.
During the first visit, patients underwent screening for inclusion/exclusion criteria and safety assessments. Symptoms of parkinsonism, depression, and anxiety were assessed, and screening for significant L-DOPA dyskinesias were conducted using a challenge dose (150%) of L-DOPA. Subjects who were taking a prohibited medication were required to complete a washout period of appropriate length, as determined by the investigator. […]
(§3) During each of five visits, and after a two-hour fast, each patient received a challenge dosage (150%—up to a maximum of 250 mg) of levodopa. […] The patients were periodically recorded for 180 minutes after treatment, and the videos were evaluated in a blinded manner. […]
as §1

5-HT1d receptor = details: Sijbesma 1990; cited from earlier work
[3] = system: Parkinson's patients with L-DOPA induced dyskinesias; assay: UPDRS-III rating of parkinsonian symptoms (levodopa efficacy) after a levodopa challenge dose; format: in vivo, human; details: 5 mg and 7.5 mg doses
Excerpt: as §2, §3
Filming occurred 30 minutes prior to, and every 30 minutes up to 180 minutes after a challenge test of L-DOPA and study medication. […] Videotaped records of each sequence were assessed by separate individual qualified raters at both of the two clinical centers.
Analyses were done on both the intention-to-treat (ITT) and per protocol (PP) population, if applicable. The change between test sessions of the highest observed Unified Parkinson's Disease Rating Scale-III (UPDRS) within each session will be calculated between the randomized placebo test session and each active test session and will be analyzed with Wilcoxon Signed Rank test on the ITT population.

[4] = system: Parkinson's patients with L-DOPA induced dyskinesias; assay: Safety and tolerability in the dose finding study; format: in vivo, human; details: single oral doses 2.5, 5, 7.5 mg in PD patients
Excerpt: This study also assessed the safety and tolerability of eltoprazine in adults with Parkinson's Disease using the following measures: a) population mean values for the change in dyskinesia ratings between the placebo and screening baseline values and any of the eltoprazine dosages used, calculated as the peak-effect on CDRS of any study medication; b) population mean values for the change in dyskinesia ratings between the placebo and screening baseline values and any of the eltoprazine dosages used, calculated as the AuC on Rush DRS of any study medication; c) any changes in the UPDRS-III total score; d) any change in the diary data set, between the baseline and placebo and any of the three study medication tests; e) any deterioration of the HADS scores after study medication compared with placebo; f) any development of depression over the course of the study period, determined by the Montgomery Asberg Depression Rating Scale (MADRS) and clinical judgment; g) comparison between the effects on Rush Dyskinesia Rating Scale (DRS) and Clinical Dyskinesia Rating Scale (CDRS) Area under the Curve (AuC) and peak of dose effects for the three study medication dosages.
After screening, each patient participated in the study for approximately 6-10 weeks. The duration of the study was about 30 weeks. […]

5-HT1a/5-HT1b receptor = details: cited from earlier work
dopamine receptors = details: cited from earlier work
[5] = Daytime plasma concentration of eltoprazine under dosing regimens

c1cc2c(c(N3CCNCC3)c1)OCCO2 [eltoprazine, 1-(2,3-dihydro-1,4-benzodioxin-5-yl) piperazine]
reduction of LID measured by the Rush Scale AUC [1]: reduced LID in PD patients statistically significantly | reduction of LID measured by the CDRS scale, compared to placebo ([2]; 5 mg single oral dose with 150% L-DOPA challenge, p=0.0007): statistically significantly reduced LID | reduction of LID measured by the CDRS scale, compared to placebo ([2]; 7.5 mg single oral dose with 150% L-DOPA challenge, p=0.0467): statistically significantly reduced LID | affinity for the 5-HT1d receptor compared with serotonin (5-HT1d receptor): lower affinity | effect on L-DOPA efficacy measured by the UPDRS score (UPDRS-III) [3]: did not affect L-DOPA efficacy; also recorded: no significant change | serious adverse events [4]: no serious adverse events | tolerability [4]: well tolerated | affinity for 5-HT1a versus 5-HT1b receptors, mixed agonist (5-HT1a/5-HT1b receptor; Schipper 1990): roughly equipotent affinity | receptor selectivity of binding profile (5-HT1a/5-HT1b receptor; with respect to all receptors other than 5-HT1, Sijbesma 1990): selective 5-HT1 ligand | affinity for dopamine receptors (dopamine receptors): no relevant affinity | daytime plasma concentration profile (FIG. 4) ([5]; 5 mg and 7.5 mg b.d. at 4 hour intervals (2.5, 5, 7.5, 10 mg compared)): optimizes daytime plasma concentration from 10 AM to 8 PM | daytime plasma concentration profile (FIG. 3) ([5]; 7.5 mg twice daily at 4 or 6 hourly intervals (4, 6, 8, 12 h compared)): optimizes daytime plasma concentration from 10 AM to 8 PM | plasma concentration of drug ([5]; dose of 5 mg): approximately 10 ng/ml | plasma concentration of drug ([5]; dose of 7.5 mg): approximately 17 ng/ml | plasma concentration profile (FIG. 5) ([5]; three times daily 2.5, 5, 7.5 mg at 4 hour intervals): achieve maximal plasma concentrations in the late afternoon/evening period into the night time
